Reference: publication PMC7433010, “Exploration of multi‐target effects of 3‐benzoyl‐5‐hydroxychromen‐2‐one in Alzheimer’s disease cell and mouse models” (Aging Cell, 2020)

Experiments:
pCREB (S133) = assay: Western blot of pCREB (S133) in ∆K280 TauRD‐DsRed SH‐SY5Y cells; type: cell-based, human; settings: 1 µM; induced untreated 78%, uninduced 100%
Procedure: To knock down CREB expression in ∆K280 TauRD-DsRed SH-SY5Y cells, lentiviral short hairpin RNA (shRNA) targeting CREB (TRCN0000226466), NRF2 (TRCN0000007558), and a negative control scrambled (TRC2.Void) were obtained from National RNAi Core Facility, IMB/GRC, Academia Sinica, Taipei, Taiwan. On day 1, cells were plated on 6-well plates (for protein analysis) or 24-well plates (for neurite outgrowth analysis) in the presence of retinoic acid as described. On the second day, the cells were infected with lentivirus (multiplicity of infection: 3) in medium with polybrene (8 µg/mL; Sigma-Aldrich). […] On day 9, the cells were collected for NRF2, CREB, pCREB, and cleaved CASP3 protein analysis or analyzed for neurite outgrowth as described.
Total proteins from ∆K280 TauRD-DsRed SH-SY5Y cells were obtained using a RIPA buffer containing 50 mM Tris-HCl (pH8.0), 150 mM NaCl, 2 mM EDTA (pH8.0), 50 mM NaF, 0.1% SDS, 0.5% sodium deoxycholate, 1% NP40, and a protease inhibitor cocktail (Sigma-Aldrich). […] Protein concentrations were determined using a protein assay kit (Bio-Rad, Hercules, CA, USA), with albumin as a standard. […] Subsequently, immune complexes were detected using a horseradish peroxidase-conjugated goat anti-mouse or goat anti-rabbit IgG antibody (1:5000; GeneTex, Irvive, CA, USA) and a chemiluminescent substrate (Millipore).

pCREB = assay: Western blot of pCREB in hippocampus of STZ‐treated 3 × Tg‐AD mice; type: in vivo, mouse; settings: STZ 68%, – STZ 100%
Procedure: In addition, isolated hippocampal and cortex tissues from transgenic mice (as described in Animal studies) were homogenized and extracted proteins (10 µg) were separated and blotted. After being blocked, the membranes were probed with antibody against mouse NRF2 (1:500; Sigma-Aldrich), CREB (1:500; Millipore), pCREB (S133) (1:1000; Millipore), or GAPDH (1:1000; MDBio), and the immune complexes detected as described above.
(§1) Mice harboring APPSwe, PS1M146V, and […] transgenes (3×Tg-AD) (Oddo et al., 2003) were purchased from the Jackson Laboratory (004807; Bar Harbor, ME, USA). Six-month-old male homozygous 3×Tg-AD mice were group housed at 20–25°C and 60% relative humidity under a daily 12-h light/12-h dark cycle, with assess to food and water ad libitum. Mice were randomly divided into 3 groups: – streptozocin (STZ), STZ, and STZ/LM-031 (n = 10 per group). STZ-induced hyperglycemia was used to accelerate the development of AD phenotype (Chen et al., 2014). Briefly, the mice were fasted for 12 h each day prior to intraperitoneal (i.p.) injection of STZ (100 g/kg; Sigma-Aldrich) or vehicle (0.1 M sodium citrate pH4.5) for 4 times (days 2, 3, 9, and 10) (Chen et al., 2019). Mouse body weight was measured and blood glucose level was measured on days 1, 8, 15, 22, and 29 using a blood glucose meter (Bioland Technology, Taipei, Taiwan). […]

[1] = system: STZ‐induced hyperglycemic 3 × Tg‐AD mice; assay: Y‐maze task in STZ‐treated 3 × Tg‐AD mice; type: in vivo, mouse; settings: day 26; 40 mg/kg i.p.; STZ 53%, – STZ 63%
Procedure: as §1, with “Briefly, the mice were fasted for 12 h each day prior to intraperitoneal (i.p.) injection of STZ (100 g/kg; Sigma-Aldrich) or vehicle (0.1 M sodium citrate pH4.5) for 4 times (days 2, 3, 9, and 10) (Chen et al., 2019).” left out
A Y-maze composed of three equally spaced arms (40 cm long, 30 cm high, and 15 cm wide) was used to assess spontaneous alternation behavior. On day 26, each mouse was placed in one of the arm compartments and was allowed to move freely for 8 min; the number of entries and the sequence of arms entered were recorded. Spatial working memory was assessed through the spontaneous alternation performances of a Y-maze exploration as described (Maurice et al., 1994). […] The percent of spontaneous alternation behavior was calculated as the ratio of actual alternation to possible alternations (total arm entries – 2) × 100.

NRF2 = assay: Western blot of NRF2 in ∆K280 TauRD‐DsRed SH‐SY5Y cells; type: cell-based, human; settings: 1 µM
Procedure: To knock down CREB expression in ∆K280 TauRD-DsRed SH-SY5Y cells, lentiviral short hairpin RNA (shRNA) targeting CREB (TRCN0000226466), NRF2 (TRCN0000007558), and a negative control scrambled (TRC2.Void) were obtained from National RNAi Core Facility, IMB/GRC, Academia Sinica, Taipei, Taiwan. On day 1, cells were plated on 6-well plates (for protein analysis) or 24-well plates (for neurite outgrowth analysis) in the presence of retinoic acid as described. On the second day, the cells were infected with lentivirus (multiplicity of infection: 3) in medium with polybrene (8 µg/mL; Sigma-Aldrich). On day 3, the culture medium was changed and the cells were pretreated with LM-031 (1 µM) for 8 h, followed by induction of ∆K280 TauRD-DsRed expression. On day 9, the cells were collected for NRF2, CREB, pCREB, and cleaved CASP3 protein analysis or analyzed for neurite outgrowth as described.
(§2) Total proteins from ∆K280 TauRD-DsRed SH-SY5Y cells were obtained using a RIPA buffer containing 50 mM Tris-HCl (pH8.0), 150 mM NaCl, 2 mM EDTA (pH8.0), 50 mM NaF, 0.1% SDS, 0.5% sodium deoxycholate, 1% NP40, and a protease inhibitor cocktail (Sigma-Aldrich). After sonication and sitting on ice for 20 min, the lysates were centrifuged at 14,000 × g for 30 min at 4°C. Protein concentrations were determined using a protein assay kit (Bio-Rad, Hercules, CA, USA), with albumin as a standard. Total proteins (20 µg) were electrophoresed on 10% or 12% SDS-polyacrylamide gel and transferred onto polyvinylidene difluoride (PVDF) membranes (Sigma-Aldrich) through reverse electrophoresis. […] Subsequently, immune complexes were detected using a horseradish peroxidase-conjugated goat anti-mouse or goat anti-rabbit IgG antibody (1:5000; GeneTex, Irvive, CA, USA) and a chemiluminescent substrate (Millipore).

pERK1/2 (T202/Y204) = assay: Western blot of pERK1/2 (T202/Y204) in ∆K280 TauRD‐DsRed SH‐SY5Y cells; type: cell-based, human; settings: induced untreated 90%, uninduced 100%
Procedure: as §2
Figure S4. ΔK280 TauRD-DsRed SH-SY5Y cells. […] On day 9, neurite outgrowth and caspase 3 activity were measured. In addition, expression of HSPB1, NRF2, and CREB pathways were assessed. (b) Relative AKT, pAKT, ERK, and pERK protein levels analyzed through immunoblotting. […]

O=C(c1ccccc1)c1cc2c(O)cccc2oc1=O [LM‐031, 3‐benzoyl‐5‐hydroxychromen‐2‐one]
pCREB (S133) protein level (pCREB (S133)): 124%
pCREB level in hippocampus (pCREB): 110%
Y‐maze alternation rate [1]: 72%
NRF2 protein level (NRF2; induced untreated 75%, uninduced 100%): 109%
NRF2 level (NRF2; NRF2‐specific shRNA‐infected cells, untreated 74%): 98%
NRF2 level (NRF2; scrambled shRNA‐infected cells, untreated 70%, uninduced 100%): 105%
pERK1/2 (T202/Y204) expression level (pERK1/2 (T202/Y204)): 117%
